According to ChEMBL document CHEMBL3046819, “Synthesis and antimicrobial activity of new pyridine derivatives-I” (2011):

Experiments:
Assay type in all cases: functional
Settings in all cases: read-out: IZ
Candida albicans [1] = test: Antifungal activity against Candida albicans ATCC 10231 at 200 ug/ml by cup-plate method
Candida albicans [2] = test: Antifungal activity against Candida albicans ATCC 10231 at 100 ug/ml by cup-plate method
Bacillus subtilis [3] = test: Antibacterial activity against Bacillus subtilis ATCC 6633 at 200 ug/ml by cup-plate method
Bacillus subtilis [4] = test: Antibacterial activity against Bacillus subtilis ATCC 6633 at 100 ug/ml by cup-plate method
Staphylococcus aureus [5] = test: Antibacterial activity against Staphylococcus aureus ATCC 9144 at 200 ug/ml by cup-plate method
Staphylococcus aureus [6] = test: Antibacterial activity against Staphylococcus aureus ATCC 9144 at 100 ug/ml by cup-plate method
Escherichia coli [7] = test: Antibacterial activity against Escherichia coli ATCC 25922 at 200 ug/ml by cup-plate method
Escherichia coli [8] = test: Antibacterial activity against Escherichia coli ATCC 25922 at 100 ug/ml by cup-plate method
Pseudomonas aeruginosa [9] = test: Antibacterial activity against Pseudomonas aeruginosa ATCC 9027 at 200 ug/ml by cup-plate method
Pseudomonas aeruginosa [10] = test: Antibacterial activity against Pseudomonas aeruginosa ATCC 9027 at 100 ug/ml by cup-plate method

Row | Compound | zone of inhibition at 200 µg/mL (Candida albicans [1]) [mm] | zone of inhibition at 100 µg/mL (Candida albicans [2]) [mm] | zone of inhibition at 200 µg/mL (Bacillus subtilis [3]) [mm] | zone of inhibition at 100 µg/mL (Bacillus subtilis [4]) [mm] | zone of inhibition at 200 µg/mL (Staphylococcus aureus [5]) [mm] | zone of inhibition at 100 µg/mL (Staphylococcus aureus [6]) [mm] | zone of inhibition at 200 µg/mL (Escherichia coli [7]) [mm] | zone of inhibition at 100 µg/mL (Escherichia coli [8]) [mm] | zone of inhibition at 200 µg/mL (Pseudomonas aeruginosa [9]) [mm] | zone of inhibition at 100 µg/mL (Pseudomonas aeruginosa [10]) [mm]
1 | O=C(c1cccnc1Nc1nc2ccc([N+](=O)[O-])cc2s1)N1CCN(CCO)CC1 | 2 | 0 | 6 | 0 | 9 | 8 | 5 | 0 | 8 | 6
2 | Cc1ccc2sc(Nc3ncccc3C(=O)N3CCN(CCO)CC3)nc2c1 | 2 | 1 | 8 | 8 | 10 | 8 | 10 | 6 | 6 | 5
3 | O=C(c1cccnc1Nc1nc2c(Cl)cccc2s1)N1CCNC(Cl)C1Cl (stereo not given) | 6 | 3 | 6 | 3 | 4 | 3 | 5 | 4 | 3 | 3
4 | O=C(c1cccnc1Nc1nc2ccc(Cl)cc2s1)N1CCNC(Cl)C1Cl (stereo not given) | 1 | 0 | 6 | 5 | 10 | 7 | 9 | 7 | 8 | 8
5 | O=C(c1cccnc1Nc1nc2ccc([N+](=O)[O-])cc2s1)N1CCNC(Cl)C1Cl (stereo not given) | 3 | 0 | 7 | 7 | 8 | 8 | 6 | 6 | 8 | 6
6 | O=C(c1cccnc1Nc1nc2c([N+](=O)[O-])cccc2s1)N1CCN(CCO)CC1 | 7 | 4 | 9 | 8 | 12 | 8 | 9 | 5 | 11 | 8
